Source: ChEMBL document CHEMBL3885881, “DrugMatrix”

Species: Rattus norvegicus
Assay: DrugMatrix - Regimen: Daily Repeat
Assay type: toxicity, organism-based, Sprague-Dawley
Set-up: regimen Daily Repeat, gender Male, age 6-8 weeks
Details: in vivo, po, 740 mg/kg, route oral GAVAGE, dose level High, vehicle .5 % CMC; for ABSOLUTE BASOPHIL / ABSOLUTE EOSINOPHIL / ABSOLUTE LYMPHOCYTE / ABSOLUTE MONOCYTE / ABSOLUTE SEGMENTED NEUTROPHIL / BASOPHIL / EOSINOPHIL / ERYTHROCYTE COUNT / HEMATOCRIT / HEMOGLOBIN / LEUKOCYTE COUNT / LYMPHOCYTE / MEAN CORPUSCULAR HEMOGLOBIN / MEAN CORPUSCULAR HEMOGLOBIN CONCENTRATION / MEAN CORPUSCULAR VOLUME / MONOCYTE / NEUTROPHIL / NUCLEATED RED BLOOD CELLS / PLATELET COUNT: tissue Blood; for ALANINE AMINOTRANSFERASE / ALBUMIN / ALKALINE PHOSPHATASE / ASPARTATE AMINOTRANSFERASE / BLOOD UREA NITROGEN / CARBON DIOXIDE / CHLORIDE / CHOLESTEROL / CREATININE / GLUCOSE / LACTATE DEHYDROGENASE / LIPASE / PHOSPHORUS / POTASSIUM / SODIUM / TOTAL BILIRUBIN / TOTAL PROTEIN / URIC ACID: tissue Plasma

## COc1ccccc1[N+](=O)[O-] [2-NITROANISOLE]
72 h, time 3 day
  ABSOLUTE BASOPHIL: 0 CELLS/uL
  ABSOLUTE EOSINOPHIL: 109.33 CELLS/uL
  ABSOLUTE LYMPHOCYTE: 13522 CELLS/uL
  ABSOLUTE MONOCYTE: 1089.33 CELLS/uL
  ABSOLUTE SEGMENTED NEUTROPHIL: 2512.67 CELLS/uL
  BASOPHIL: 0%
  EOSINOPHIL: 0.67%
  ERYTHROCYTE COUNT: 5.38 x10E6/uL
  HEMATOCRIT: 32.17%
  HEMOGLOBIN: 11.9 G/DL
  LEUKOCYTE COUNT: 17.23 x10E3/uL
  LYMPHOCYTE: 78.67%
  MEAN CORPUSCULAR HEMOGLOBIN: 22.1 pg
  MEAN CORPUSCULAR HEMOGLOBIN CONCENTRATION: 37 G/DL
  MEAN CORPUSCULAR VOLUME: 59.83 fL
  MONOCYTE: 6.33%
  NEUTROPHIL: 14.33%
  NUCLEATED RED BLOOD CELLS: 0 /100WBC
  PLATELET COUNT: 1241.67 x10E3/uL
  ALANINE AMINOTRANSFERASE: 84.67 u/L
  ALBUMIN: 4.37 G/DL
  ALKALINE PHOSPHATASE: 448.33 u/L
  ASPARTATE AMINOTRANSFERASE: 103.67 u/L
  BLOOD UREA NITROGEN: 14 mg/dL
  CARBON DIOXIDE: 22.67 mmol/L
  CHLORIDE: 101.67 MEQ/L
  CHOLESTEROL: 95.67 mg/dL
  CREATININE: 0.18 mg/dL
  GLUCOSE: 145 mg/dL
  LACTATE DEHYDROGENASE: 412.67 u/L
  LIPASE: 9.33 u/L
  PHOSPHORUS: 11.6 mg/dL
  POTASSIUM: 6.07 MEQ/L
  SODIUM: 142.23 MEQ/L
  TOTAL BILIRUBIN: 0.23 mg/dL
  TOTAL PROTEIN: 5.93 G/DL
  URIC ACID: 1.7 mg/dL
120 h, time 5 day
  ABSOLUTE BASOPHIL: 0 CELLS/uL
  ABSOLUTE EOSINOPHIL: 0 CELLS/uL
  ABSOLUTE LYMPHOCYTE: 12322.33 CELLS/uL
  ABSOLUTE MONOCYTE: 57 CELLS/uL
  ABSOLUTE SEGMENTED NEUTROPHIL: 3254 CELLS/uL
  BASOPHIL: 0%
  EOSINOPHIL: 0%
  ERYTHROCYTE COUNT: 5.04 x10E6/uL
  HEMATOCRIT: 30.5%
  HEMOGLOBIN: 10.83 G/DL
  LEUKOCYTE COUNT: 15.63 x10E3/uL
  LYMPHOCYTE: 79%
  MEAN CORPUSCULAR HEMOGLOBIN: 21.5 pg
  MEAN CORPUSCULAR HEMOGLOBIN CONCENTRATION: 35.5 G/DL
  MEAN CORPUSCULAR VOLUME: 60.6 fL
  MONOCYTE: 0.33%
  NEUTROPHIL: 20.67%
  NUCLEATED RED BLOOD CELLS: 1 /100WBC
  PLATELET COUNT: 1041 x10E3/uL
  ALANINE AMINOTRANSFERASE: 76.67 u/L
  ALBUMIN: 4.67 G/DL
  ALKALINE PHOSPHATASE: 401.67 u/L
  ASPARTATE AMINOTRANSFERASE: 101 u/L
  BLOOD UREA NITROGEN: 14.33 mg/dL
  CARBON DIOXIDE: 33 mmol/L
  CHLORIDE: 98.33 MEQ/L
  CHOLESTEROL: 92.33 mg/dL
  CREATININE: 0.15 mg/dL
  GLUCOSE: 127 mg/dL
  LACTATE DEHYDROGENASE: 114.33 u/L
  LIPASE: 9.67 u/L
  PHOSPHORUS: 12.23 mg/dL
  POTASSIUM: 6 MEQ/L
  SODIUM: 144.43 MEQ/L
  TOTAL BILIRUBIN: 0.23 mg/dL
  TOTAL PROTEIN: 6.53 G/DL
  URIC ACID: 0.9 mg/dL
[…], time 14 day
  ABSOLUTE BASOPHIL: 0 CELLS/uL
  ABSOLUTE EOSINOPHIL: 157.6 CELLS/uL
  ABSOLUTE LYMPHOCYTE: 18755.2 CELLS/uL
  ABSOLUTE MONOCYTE: 504.8 CELLS/uL
  ABSOLUTE SEGMENTED NEUTROPHIL: 3782.4 CELLS/uL
  BASOPHIL: 0%
  EOSINOPHIL: 0.8%
  ERYTHROCYTE COUNT: 4.9 x10E6/uL
  HEMATOCRIT: 34.42%
  HEMOGLOBIN: 12.78 G/DL
  LEUKOCYTE COUNT: 23.2 x10E3/uL
  LYMPHOCYTE: 80.8%
  MEAN CORPUSCULAR HEMOGLOBIN: 26.14 pg
  MEAN CORPUSCULAR HEMOGLOBIN CONCENTRATION: 37.14 G/DL
  MEAN CORPUSCULAR VOLUME: 70.28 fL
  MONOCYTE: 2.2%
  NEUTROPHIL: 16.2%
  NUCLEATED RED BLOOD CELLS: 0 /100WBC
  PLATELET COUNT: 1231 x10E3/uL
  ALANINE AMINOTRANSFERASE: 73.4 u/L
  ALBUMIN: 4.84 G/DL
  ALKALINE PHOSPHATASE: 271.2 u/L
  ASPARTATE AMINOTRANSFERASE: 85.6 u/L
  BLOOD UREA NITROGEN: 17 mg/dL
  CARBON DIOXIDE: 31.6 mmol/L
  CHLORIDE: 99.2 MEQ/L
  CHOLESTEROL: 77 mg/dL
  CREATININE: 0.21 mg/dL
  GLUCOSE: 125 mg/dL
  LACTATE DEHYDROGENASE: 356.6 u/L
  LIPASE: 9 u/L
  PHOSPHORUS: 11.68 mg/dL
  POTASSIUM: 6.84 MEQ/L
  SODIUM: 142.78 MEQ/L
  TOTAL BILIRUBIN: 0.28 mg/dL
  TOTAL PROTEIN: 6.82 G/DL
  URIC ACID: 1.6 mg/dL
